Results as given in patent publication US8557848B2, “4,5-ring annulated indole derivatives for treating or preventing of HCV and related viral infections” (Merck Sharp & Dohme Corp., priority 2006, dated 2013).
pEC50, pIC50: −log10 of the molar value. Read-outs that look alike come from different tables or passages of the source.

What was measured:
[1] = test system: HCV replicon cells (replicon RNA level); assay: Cell-Based HCV Replicon Assay; details: Hepatitis C virus, 72 h
Protocol: To measure cell-based anti-HCV activity of the a Compound of Formula (I), replicon cells were seeded at 5000 cells/well in 96-well collagen I-coated Nunc plates in the presence of the Compound of Formula (I). Various concentrations of a Compound of Formula (I), typically in 10 serial 2-fold dilutions, were added to the assay mixture, with the starting concentration ranging from 250 μM to 1 μM. The final concentration of DMSO was 0.5%, fetal bovine serum was 5%, in the assay media. Cells were harvested on day 3 by the addition of 1× cell lysis buffer (Ambion cat #8721). The replicon RNA level was measured using real time PCR (Taqman assay). The amplicon was located in 5B. The PCR primers were: 5B.2F, ATGGACAGGCGCCCTGA; 5B.2R, […]; the probe sequence was FAM-labeled CACGCCATGCGCTGCGG. GAPDH RNA was used as endogenous control and was amplified in the same reaction as NS5B (multiplex PCR) using primers and VIC-labeled probe recommended by the manufacturer (PE Applied Biosystem). The real-time RT-PCR reactions were run on ABI PRISM 7900HT Sequence Detection System using the following program: 48° C. for 30 min, 95° C. for 10 min, 40 cycles of 95° C. for 15 sec, 60° C. for 1 min. The ΔCT values (CT5B-CTGAPDH) were plotted against the concentration of test compound and fitted to the sigmoid dose-response model using XLfit4 (MDL). EC50 was defined as the concentration of inhibitor necessary to achieve ΔCT=1 over the projected baseline; EC90 the concentration necessary to achieve ΔCT=3.2 over the baseline. Alternatively, to quantitate the absolute amount of replicon RNA, a standard curve was established by including serially diluted T7 transcripts of replicon RNA in the Taqman assay. All Taqman reagents were from PE Applied Biosystems. Such an assay procedure was described in detail in e.g. Malcolm et al., Antimicrobial Agents and Chemotherapy 50: 1013-1020 (2006).
HCV Replicon assay data for selected Compounds of Formula (I) is provided below in Table 1, wherein the compound numbers correspond to the compound numbering set forth in the above specification.

[2] = target: T1, HCV NS5B polymerase (NS5BΔCT21, from HCV-Con 1 isolate, genotype 1b) (Hepatitis C virus genotype 1b, UniProt Q9WMX2); assay: HCV NS5B Polymerase Inhibition Assay; assay type: biochemical
T1 construct: A soluble C-terminal 21-amino acid truncated NS5B enzyme form; polyhistidine (C); made in house; host or cells: Escherichia coli
From the text: A chemically synthesized 75-mer version, designated DCoH75, whose sequence matches the 3′-end of D-RNA, and DCoH75ddC, where the 3′-terminal cytidine of DCoH75 is replaced by dideoxycytidine, were used for assaying the NS5B enzyme activity as described in Ferrari et al., 12th International Symposium on HCV and Related Viruses, P-306 (2005). The sequence of the template RNA was: 5′-UGUGCCGGUCUUUCUGAACGGGAUAUAAACCUGGCCAGCUUCAUCGAACAAGUUGCCGUGUCUAUGACAUAGAUC-3′. A soluble C-terminal 21-amino acid truncated NS5B enzyme form (NS5BΔCT21, from HCV-Con 1 isolate, genotype 1b, Genbank accession number AJ238799) was produced and purified from Escherichia coli as C-terminal polyhistidine-tagged fusion protein as described in Ferrari et al., J. Virol. 73:1649-1654 (1999). A typical assay contained 20 mM Hepes pH 7.3, 10 mM MgCl2, 60 mM NaCl, 100 μg/ml BSA, 20 units/ml RNasin, 7.5 mM DTT, 0.1 μM ATP/GTP/UTP, 0.026 μM CTP, 0.25 mM GAU, 0.03 μM RNA template, 20 μCi/ml [^33P]-CTP, 2% DMSO, and 30 or 150 nM NS5B enzyme. Reactions were incubated at 22° C. for 2 hours, then stopped by adding 150 mM EDTA, washed in DE81 filter plate in 0.5M di-basic sodium phosphate buffer, pH 7.0, and counted using Packard TopCount after the addition of scintillation cocktail. Polynucleotide synthesis was monitored by the incorporation of radiolabeled CTP. The effect of the Compounds of Formula (I) on the polymerase activity was evaluated by adding various concentrations of a Compound of Formula (I), typically in 10 serial 2-fold dilutions, to the assay mixture. The starting concentrations ranged from 200 μM to 1 μM. An IC50 value for the inhibitor, defined as the compound concentration that provides 50% inhibition of polymerase activity, was determined by fitting the cpm data to the Hill equation Y=100/(1+10^((LogIC50-X)*HillSlope)), where X is the logarithm of compound concentration, and Y is the % inhibition. Ferrari et al., 12th International Symposium on HCV and Related Viruses, P-306 (2005) described in detail this assay procedure. It should be noted that such an assay as described is exemplary and not intended to limit the scope of the invention. The skilled practitioner can appreciate that modifications including but not limited to RNA template, primer, nucleotides, NS5B polymerase form, buffer composition, can be made to develop similar assays that yield the same result for the efficacy of the compounds and compositions described in the invention.
NS5B polymerase inhibition data for selected Compounds of Formula (I) is provided below in Table 2, wherein the compound numbers correspond to the compound numbering set forth in the above specification.

[3] = replicon RNA level by real time PCR (Taqman), cells harvested on day 3, read-out: EC50
[4] = NS5B polymerase inhibition, [33P]-CTP incorporation, 22° C. for 2 hours, read-out: IC50

| Structure (SMILES) | pEC50 [1, 3] | pIC50 [2, 4] | pIC50 [2] | pEC50 [1] |
| --- | --- | --- | --- | --- |
| O=C(O)c1c(-c2ccc[nH]c2=O)c2c3ncsc3ccc2n1Cc1ccc(F)cc1F [Compound 17] | < 5.82 | > 7.60 | – | – |
| O=C(O)c1c(-c2ccc[nH]c2=O)c2c3occc3c(F)cc2n1Cc1ccc2[nH]c(=O)[nH]c2c1 [Compound 103] | > 6.30 | > 7.60 | – | – |
| Nc1noc2ccc(Cn3c(C(=O)O)c(-c4ccc[nH]c4=O)c4c5occc5c(F)cc43)cc12 [Compound 102] | > 6.30 | > 7.60 | – | – |
| CC(C)(C)C(=O)OCOC(=O)c1c(-c2cccn(COC(=O)C(C)(C)C)c2=O)c2c3occc3c(F)cc2n1Cc1cc(=O)n(COC(=O)C(C)(C)C)cc1F [Compound 228] | > 6.30 | – | < 7.00 | – |
| Cc1ccc2cc(Cn3c(C(=O)O)c(-c4ccc[nH]c4=O)c4c5occc5c(F)cc43)c(Cl)nc2c1 [Compound 139] | > 6.30 | > 7.60 | – | – |
| CS(=O)(=O)NC(=O)c1c(-c2ccc[nH]c2=O)c2c3occc3c(F)cc2n1Cc1cc2nc[nH]c2cc1Cl [Compound 182] | > 6.30 | > 7.60 | – | – |
| COc1ccc(S(=O)(=O)NC(=O)c2c(-c3ccc[nH]c3=O)c3c4ccoc4ccc3n2Cc2ccc(F)cc2F)cc1 [Compound 10] | < 5.82 | 7.00 to 7.60 | – | – |
| O=C(NS(=O)(=O)C1CC1)c1ccc(F)c(Cn2c(C(=O)NS(=O)(=O)C3CC3)c(-c3ccc[nH]c3=O)c3c4occc4c(F)cc32)c1 [Compound 225] | 5.82 to 6.30 | > 7.60 | – | – |
| O=C(O)c1c(-c2ccc[nH]c2=O)c2c3occc3c(F)cc2n1Cc1ccc2nc[nH]c2c1 [Compound 91] | > 6.30 | > 7.60 | – | – |
| O=C(O)c1c(-c2ccc[nH]c2=O)c2c3occc3c(F)cc2n1Cc1cc(=O)[nH]cc1F [Compound 87] | – | > 7.60 | – | > 6.30 |
| NC(=O)c1ccc(F)c(Cn2c(C(=O)O)c(-c3ccc[nH]c3=O)c3c4occc4ccc32)c1 [Compound 94] | > 6.30 | > 7.60 | – | – |
| Nc1nc2cc(Cn3c(C(=O)O)c(-c4ccc[nH]c4=O)c4c5occc5c(F)cc43)ccc2[nH]1 [Compound 101] | > 6.30 | > 7.60 | – | – |
| O=C(NS(=O)(=O)C1CC1)c1c(-c2ccc[nH]c2=O)c2c3occc3ccc2n1Cc1ccccc1F [Compound 65] | > 6.30 | > 7.60 | – | – |
| O=C(O)c1c(-c2ccc[nH]c2=O)c2c3occc3c(F)cc2n1Cc1cc2c(=O)[nH]cnc2cc1F [Compound 127] | > 6.30 | > 7.60 | – | – |
| Nc1cc(Cn2c(C(=O)O)c(-c3ccc[nH]c3=O)c3c4scnc4ccc32)ccn1 [Compound 13] | < 5.82 | < 7.00 | – | – |
| O=C(O)c1c(-c2ccc[nH]c2=O)c2c3occc3c(F)cc2n1Cc1cc(=O)[nH]cc1Br [Compound 135] | > 6.30 | > 7.60 | – | – |
| CCS(=O)(=O)NC(=O)c1c(-c2ccc[nH]c2=O)c2c3occc3ccc2n1Cc1cc(F)ccc1F [Compound 57] | > 6.30 | > 7.60 | – | – |
| O=C(NS(=O)(=O)C1CC1)c1c(-c2ccc[nH]c2=O)c2c3occc3c(F)cc2n1Cc1cc(Cl)nc2ccccc12 [Compound 210] | 5.82 to 6.30 | > 7.60 | – | – |
| O=C(NS(=O)(=O)C1CC1)c1c(-c2ccc[nH]c2=O)c2c3occc3ccc2n1Cc1cc2ccccc2nc1Cl [Compound 201] | > 6.30 | > 7.60 | – | – |

| Structure (SMILES) | pEC50 [1, 3] | pIC50 [2, 4] | pIC50 [2] | pEC50 [1] |
| --- | --- | --- | --- | --- |
| O=C(NS(=O)(=O)C1CC1)c1c(-c2ccc[nH]c2=O)c2c3occc3c(F)cc2n1Cc1cc2c(=O)[nH]cnc2cc1F [Compound 212] | > 6.30 | – | > 7.60 | – |
| CS(=O)(=O)NC(=O)c1c(-c2ccc[nH]c2=O)c2c3occc3c(F)cc2n1Cc1cc([N+](=O)[O-])ccc1F [Compound 179] | > 6.30 | > 7.60 | – | – |
| Cc1cccc(Cn2c(C(=O)NS(=O)(=O)C3CC3)c(-c3ccc[nH]c3=O)c3c4occc4ccc32)c1F [Compound 155] | > 6.30 | > 7.60 | – | – |
| CC(C)S(=O)(=O)NC(=O)c1c(-c2ccc[nH]c2=O)c2c3occc3c(F)cc2n1Cc1ccccc1F [Compound 163] | > 6.30 | > 7.60 | – | – |
| CCc1coc2c1ccc1c2c(-c2ccc[nH]c2=O)c(C(=O)NS(C)(=O)=O)n1Cc1ccccc1F [Compound 70] | < 5.82 | < 7.00 | – | – |
| O=C(O)c1c(-c2ccc[nH]c2=O)c2c3occc3c(F)cc2n1Cc1cc2ccccc2[nH]c1=O [Compound 115] | > 6.30 | > 7.60 | – | – |
| O=C(O)c1c(-c2ccc[nH]c2=O)c2c3sccc3ccc2n1Cc1ccccc1F [Compound 34] | 5.82 to 6.30 | 7.00 to 7.60 | – | – |
| O=C(O)c1c(-c2ccc[nH]c2=O)c2c3scnc3ccc2n1Cc1ccc(F)cc1F [Compound 16] | < 5.82 | < 7.00 | – | – |
| O=C(NS(=O)(=O)C1CC1)c1c(-c2ccc[nH]c2=O)c2c3ncsc3ccc2n1Cc1cc2ccccc2nc1Cl [Compound 209] | > 6.30 | > 7.60 | – | – |
| O=C(O)c1c(-c2ccc[nH]c2=O)c2c3occ(Cl)c3c(F)cc2n1Cc1cc2ccccc2nc1Cl [Compound 159] | > 6.30 | > 7.60 | – | – |
| Cc1cccc(Cn2c(C(=O)NS(=O)(=O)C3CC3)c(-c3ccc[nH]c3=O)c3c4occc4c(F)cc32)c1F [Compound 171] | > 6.30 | > 7.60 | – | – |
| CS(=O)(=O)NC(=O)c1c(-c2ccc[nH]c2=O)c2c3occc3cc(F)c2n1Cc1cc(F)ccc1F [Compound 151] | 5.82 to 6.30 | > 7.60 | – | – |
| Cc1cccc(Cn2c(C(=O)NS(C)(=O)=O)c(-c3ccc[nH]c3=O)c3c4occc4ccc32)c1F [Compound 66] | > 6.30 | > 7.60 | – | – |
| CSc1ccc2cc(Cn3c(C(=O)O)c(-c4ccc[nH]c4=O)c4c5occc5c(F)cc43)c(Cl)nc2c1 [Compound 168] | > 6.30 | > 7.60 | – | – |
| O=C(O)c1c(-c2ccc[nH]c2=O)c2c3occc3c(F)cc2n1Cc1cc([N+](=O)[O-])ccc1F [Compound 111] | > 6.30 | > 7.60 | – | – |
| CS(=O)(=O)NC(=O)c1c(-c2ccc[nH]c2=O)c2c3ncsc3ccc2n1Cc1ccccc1F [Compound 50] | > 6.30 | > 7.60 | – | – |
| O=C(O)c1c(-c2ccc[nH]c2=O)c2c3occc3c(F)cc2n1Cc1cc2[nH]c(=O)[nH]c2cc1Cl [Compound 131] | > 6.30 | > 7.60 | – | – |
| CC(C)S(=O)(=O)NC(=O)c1c(-c2ccc[nH]c2=O)c2c3occc3ccc2n1Cc1cc(F)ccc1F [Compound 63] | > 6.30 | > 7.60 | – | – |
